# Source: patent US20200222474A1, “COMPOSITIONS AND METHODS FOR INCREASING PHYTOCHEMICAL BIOAVAILABLITY AND BIOACTIVITY” (North Carolina State University, priority 2017, published 2020)
# Tested on: L. acidophilus NCFM
# Experiment: RNA-seq transcriptional analysis of L. acidophilus NCFM growing on plant glycosides
# Type: cell-based, Lactobacillus acidophilus
# [1] = LBA0329 Putative cell division protein, COG D
# [2] = LBA0466 Hypothetical protein, COG C
# [3] = LBA0500 MSM operon repressor, COG K
# [4] = LBA0545 Hypothetical protein, COG L
# [5] = LBA0547 Putative site-specific recombinase, COG L
# [6] = LBA0573 Putative transcriptional regulator, COG K
# [7] = LBA0607 Putative transcriptional regulator, COG K
# [8] = LBA0672 Putative phosphate starvation inducible protein stress related, COG J
# [9] = LBA0753 Multi-drug-type permease, COG GEPR
# [10] = LBA0886 Sugar kinase-putative transcriptional regulator, COG KG
# [11] = LBA0887 Hypothetical protein, COG C
# [12] = LBA0897 Putative Cro-like protein, COG K
# [13] = LBA0910 L-lactate dehydrogenase, COG C
# [14] = LBA1021 Putative transcriptional regulator, COG K
# [15] = LBA1220 Pyridine mercuric reductase, COG C
# [16] = LBA1392 Mucus binding protein precursor Mub, COG J
# [17] = LBA1411 Fumarate reductase flavoprotein subunit, COG CS
# [18] = LBA1436 Glycerol uptake facilitator protein, COG G
# [19] = LBA1457 Galactose-1-epimerase, COG G
# [20] = LBA1458 Galactose-1-phosphate uridylyltransferase, COG G
# [21] = LBA1462 Beta-galactosidase, COG G
# [22] = LBA1463 Lactose permease, COG G
# [23] = LBA1465 Transcription repressor of beta-galactosidasegene, COG K
# [24] = LBA1467 Beta-galactosidase large subunit (lactase), COG G
# [25] = LBA1468 Beta-galactosidase small subunit, COG G
smiles,measurement,setting,value
OCc1ccccc1O[C@@H]1O[C@H](CO)[C@@H](O)[C@H](O)[C@H]1O [Salicin],Log2 differential normalized TPM ratio compared to glucose,"LBA0016 Fructokinase, COG KG",1.7
same,Log2 differential normalized TPM ratio compared to lactose,"LBA0016 Fructokinase, COG KG",0.5
same,Transcripts per million (rpm),"LBA0016 Fructokinase, COG KG",300.8 rpm
same,Log2 differential normalized TPM ratio compared to glucose,[1],0.4
same,Log2 differential normalized TPM ratio compared to lactose,[1],0
same,Transcripts per million (rpm),[1],22.1 rpm
same,Log2 differential normalized TPM ratio compared to glucose,[2],1.3
same,Log2 differential normalized TPM ratio compared to lactose,[2],-0.2
same,Transcripts per million (rpm),[2],238.1 rpm
same,Log2 differential normalized TPM ratio compared to glucose,[3],1.4
same,Log2 differential normalized TPM ratio compared to lactose,[3],−0.3
same,Transcripts per million (rpm),[3],138.7 rpm
same,Log2 differential normalized TPM ratio compared to glucose,[4],1.8
same,Log2 differential normalized TPM ratio compared to lactose,[4],−0.3
same,Transcripts per million (rpm),[4],259 rpm
same,Log2 differential normalized TPM ratio compared to glucose,[5],1.5
same,Log2 differential normalized TPM ratio compared to lactose,[5],−0.3
same,Transcripts per million (rpm),[5],32.5 rpm
same,Log2 differential normalized TPM ratio compared to glucose,[6],−1.1
same,Log2 differential normalized TPM ratio compared to lactose,[6],−1.2
same,Transcripts per million (rpm),[6],43.7 rpm
same,Log2 differential normalized TPM ratio compared to glucose,[7],0.8
same,Log2 differential normalized TPM ratio compared to lactose,[7],0.3
same,Transcripts per million (rpm),[7],86.7 rpm
same,Log2 differential normalized TPM ratio compared to glucose,[8],1.1
same,Log2 differential normalized TPM ratio compared to lactose,[8],0.2
same,Transcripts per million (rpm),[8],3596.1 rpm
same,Log2 differential normalized TPM ratio compared to glucose,[9],0.5
same,Log2 differential normalized TPM ratio compared to lactose,[9],1.2
same,Transcripts per million (rpm),[9],70.4 rpm
same,Log2 differential normalized TPM ratio compared to glucose,[10],0.3
same,Log2 differential normalized TPM ratio compared to lactose,[10],0
same,Transcripts per million (rpm),[10],8.1 rpm
same,Log2 differential normalized TPM ratio compared to glucose,[11],1.5
same,Log2 differential normalized TPM ratio compared to lactose,[11],0.2
same,Transcripts per million (rpm),[11],160.2 rpm
same,Log2 differential normalized TPM ratio compared to glucose,[12],0.1
same,Log2 differential normalized TPM ratio compared to lactose,[12],2.5
same,Transcripts per million (rpm),[12],2.8 rpm
same,Log2 differential normalized TPM ratio compared to glucose,[13],1.2
same,Log2 differential normalized TPM ratio compared to lactose,[13],0.2
same,Transcripts per million (rpm),[13],301.8 rpm
same,Log2 differential normalized TPM ratio compared to glucose,[14],−0.5
same,Log2 differential normalized TPM ratio compared to lactose,[14],−0.8
same,Transcripts per million (rpm),[14],108.6 rpm
same,Log2 differential normalized TPM ratio compared to glucose,[15],1.7
same,Log2 differential normalized TPM ratio compared to lactose,[15],0.7
same,Transcripts per million (rpm),[15],654.9 rpm
same,Log2 differential normalized TPM ratio compared to glucose,[16],0.1
same,Log2 differential normalized TPM ratio compared to lactose,[16],0.3
same,Transcripts per million (rpm),[16],114.4 rpm
same,Log2 differential normalized TPM ratio compared to glucose,[17],1.4
same,Log2 differential normalized TPM ratio compared to lactose,[17],0.3
same,Transcripts per million (rpm),[17],5.9 rpm
same,Log2 differential normalized TPM ratio compared to glucose,[18],3.8
same,Log2 differential normalized TPM ratio compared to lactose,[18],0
same,Transcripts per million (rpm),[18],37.6 rpm
same,Log2 differential normalized TPM ratio compared to glucose,[19],1.9
same,Log2 differential normalized TPM ratio compared to lactose,[19],−3.7
same,Transcripts per million (rpm),[19],55.9 rpm
same,Log2 differential normalized TPM ratio compared to glucose,[20],1.8
same,Log2 differential normalized TPM ratio compared to lactose,[20],−3.8
same,Transcripts per million (rpm),[20],48.4 rpm
same,Log2 differential normalized TPM ratio compared to glucose,"LBA1459 Galactokinase, COG G",0.8
same,Log2 differential normalized TPM ratio compared to lactose,"LBA1459 Galactokinase, COG G",−3.9
same,Transcripts per million (rpm),"LBA1459 Galactokinase, COG G",42.2 rpm
same,Log2 differential normalized TPM ratio compared to glucose,[21],−0.1
same,Transcripts per million (rpm),[21],16.8 rpm
same,Log2 differential normalized TPM ratio compared to glucose,[22],0.1
same,Log2 differential normalized TPM ratio compared to lactose,[22],−4.6
same,Transcripts per million (rpm),[22],62.2 rpm
same,Log2 differential normalized TPM ratio compared to glucose,"LBA1464 Transposase, COG L",0
same,Log2 differential normalized TPM ratio compared to lactose,"LBA1464 Transposase, COG L",−2.4
same,Transcripts per million (rpm),"LBA1464 Transposase, COG L",182.7 rpm
same,Log2 differential normalized TPM ratio compared to glucose,[23],−0.1
same,Log2 differential normalized TPM ratio compared to lactose,[23],−3.2
same,Transcripts per million (rpm),[23],52.9 rpm
same,Log2 differential normalized TPM ratio compared to glucose,[24],1.5
same,Log2 differential normalized TPM ratio compared to lactose,[24],−7.3
same,Transcripts per million (rpm),[24],14.9 rpm
same,Log2 differential normalized TPM ratio compared to glucose,[25],1
same,Log2 differential normalized TPM ratio compared to lactose,[25],−5.4
same,Transcripts per million (rpm),[25],43.3 rpm
